Measured values from US20080009418A1, “Selective Inhibitors” (Alchemia LTD., priority 2004, published 2008).

What was measured:
[1] = target: T1, Human δ-opioid (DOP) (Homo sapiens, UniProt P41143); test: Radioligand binding, human δ-opioid (DOP) membranes, FlashPlate, [3H]-Bremazocine; settings: compound at 10 μM, [3H]-Bremazocine
T1 construct: purchased Perkin Elmer Biosignal
Method in brief: (§1)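 Cloned human receptor membranes were coated onto FlashPlate wells and incubated with radioligand and compound (added from a 0.5 mM DMSO daughter plate) for 1 hour at room temperature in the dark. Scintillation counting gave percent inhibition, with DMSO defining total and reference ligand defining non-specific binding.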

[2] = target: T2, Human κ-Opioid (KOP) (Homo sapiens, UniProt P41145); test: Radioligand binding, human κ-opioid (KOP) membranes, filtration, [3H]-Diprenorphine; settings: compound at 10 μM, [3H]-Diprenorphine
T2 construct: purchased Perkin Elmer Biosignal
T2 sequence (P41145 whole entry): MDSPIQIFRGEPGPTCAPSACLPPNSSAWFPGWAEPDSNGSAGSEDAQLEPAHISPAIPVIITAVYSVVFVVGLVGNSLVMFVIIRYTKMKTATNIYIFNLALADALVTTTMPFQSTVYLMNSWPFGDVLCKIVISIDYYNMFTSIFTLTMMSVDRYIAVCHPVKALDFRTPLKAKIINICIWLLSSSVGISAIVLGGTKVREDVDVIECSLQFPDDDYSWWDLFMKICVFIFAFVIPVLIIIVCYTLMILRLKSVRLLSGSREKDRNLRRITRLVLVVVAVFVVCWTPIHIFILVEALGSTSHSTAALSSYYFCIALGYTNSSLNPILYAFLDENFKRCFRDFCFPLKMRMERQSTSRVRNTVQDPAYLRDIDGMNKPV
Method in brief: (§2)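 Filtration binding on cloned human receptor membranes (1 Unit/well), [125I]-Substance P for NK1 and [3H]-Diprenorphine for KOP, 1 h at room temperature. Filters PEI-presoaked, washed with cold 50 mM Tris-HCl pH 7.4, counted by scintillation; percent inhibition calculated, reference ligand defining non-specific binding.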

[3] = target: T3, Human Melanocortin (MC3) (Homo sapiens, UniProt P41968); test: Radioligand binding, human melanocortin MC3 membranes, FlashPlate, [125I]-NDP-αMSH; settings: compound at 10 μM, [125I]-NDP-αMSH
T3 construct: purchased Perkin Elmer Biosignal
T3 sequence (P41968 whole entry): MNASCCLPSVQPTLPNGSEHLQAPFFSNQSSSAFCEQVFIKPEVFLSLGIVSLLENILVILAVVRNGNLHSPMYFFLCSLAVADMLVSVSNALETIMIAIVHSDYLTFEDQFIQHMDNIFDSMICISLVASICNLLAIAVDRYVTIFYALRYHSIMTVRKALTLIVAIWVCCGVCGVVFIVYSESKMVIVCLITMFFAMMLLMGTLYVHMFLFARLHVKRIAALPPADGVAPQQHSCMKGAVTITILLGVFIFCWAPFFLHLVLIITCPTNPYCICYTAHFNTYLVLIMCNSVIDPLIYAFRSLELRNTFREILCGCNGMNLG
Method in brief: as §1

[4] = target: T4, Human Melanocortin (MC4) (Homo sapiens, UniProt P32245); test: Radioligand binding, human melanocortin MC4 membranes, FlashPlate, [125I]-NDP-αMSH; settings: compound at 10 μM, [125I]-NDP-αMSH
T4 construct: purchased Perkin Elmer Biosignal
T4 sequence (P32245 whole entry): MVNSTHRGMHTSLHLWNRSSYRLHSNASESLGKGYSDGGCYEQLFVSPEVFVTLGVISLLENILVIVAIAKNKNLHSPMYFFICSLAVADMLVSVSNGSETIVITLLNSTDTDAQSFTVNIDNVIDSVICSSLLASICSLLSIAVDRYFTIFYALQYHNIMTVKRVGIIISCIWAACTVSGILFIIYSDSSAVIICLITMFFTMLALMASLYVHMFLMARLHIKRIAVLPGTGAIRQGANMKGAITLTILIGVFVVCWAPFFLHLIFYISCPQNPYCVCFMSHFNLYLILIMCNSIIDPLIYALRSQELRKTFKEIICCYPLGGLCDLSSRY
Method in brief: as §1

[5] = target: T5, Human melanocortin (MC5) (Homo sapiens, UniProt P33032); test: Radioligand binding, human melanocortin MC5 membranes, FlashPlate, [125I]-NDP-αMSH; settings: compound at 10 μM, [125I]-NDP-αMSH
T5 construct: purchased Perkin Elmer Biosignal
T5 sequence (P33032 whole entry): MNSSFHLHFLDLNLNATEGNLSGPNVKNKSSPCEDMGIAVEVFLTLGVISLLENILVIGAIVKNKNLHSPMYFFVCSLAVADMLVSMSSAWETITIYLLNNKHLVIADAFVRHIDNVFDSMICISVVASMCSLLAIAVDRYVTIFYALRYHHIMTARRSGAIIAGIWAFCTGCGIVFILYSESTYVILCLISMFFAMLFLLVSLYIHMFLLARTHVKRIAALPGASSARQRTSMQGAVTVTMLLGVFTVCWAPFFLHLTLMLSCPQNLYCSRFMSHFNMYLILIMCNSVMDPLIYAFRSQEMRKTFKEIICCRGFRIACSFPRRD
Method in brief: as §1

[6] = target: T6, Human melanin-concentrating hormone (MCH1) (Homo sapiens, UniProt Q99705); test: Radioligand binding, human melanin-concentrating hormone MCH1 membranes, FlashPlate, [125I]-S36057; settings: compound at 10 μM
T6 construct: purchased Perkin Elmer Biosignal
T6 sequence (Q99705 whole entry): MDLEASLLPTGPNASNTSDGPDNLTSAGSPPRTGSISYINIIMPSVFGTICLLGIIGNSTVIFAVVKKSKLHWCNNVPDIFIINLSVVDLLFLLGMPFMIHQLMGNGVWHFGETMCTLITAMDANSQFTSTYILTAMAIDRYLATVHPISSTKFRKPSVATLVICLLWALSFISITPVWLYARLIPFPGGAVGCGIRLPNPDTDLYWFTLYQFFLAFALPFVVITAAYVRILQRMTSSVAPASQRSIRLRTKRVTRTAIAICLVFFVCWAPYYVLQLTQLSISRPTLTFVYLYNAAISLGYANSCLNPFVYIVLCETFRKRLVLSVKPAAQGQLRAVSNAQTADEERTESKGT
Method in brief: as §1

[7] = target: T7, Human μ-opioid (MOP) (Homo sapiens, UniProt P35372); test: Radioligand binding, human μ-opioid (MOP) membranes, FlashPlate, [3H]-Naloxone; settings: compound at 10 μM, [3H]-Naloxone
T7 construct: purchased Perkin Elmer Biosignal
T7 sequence (P35372 whole entry): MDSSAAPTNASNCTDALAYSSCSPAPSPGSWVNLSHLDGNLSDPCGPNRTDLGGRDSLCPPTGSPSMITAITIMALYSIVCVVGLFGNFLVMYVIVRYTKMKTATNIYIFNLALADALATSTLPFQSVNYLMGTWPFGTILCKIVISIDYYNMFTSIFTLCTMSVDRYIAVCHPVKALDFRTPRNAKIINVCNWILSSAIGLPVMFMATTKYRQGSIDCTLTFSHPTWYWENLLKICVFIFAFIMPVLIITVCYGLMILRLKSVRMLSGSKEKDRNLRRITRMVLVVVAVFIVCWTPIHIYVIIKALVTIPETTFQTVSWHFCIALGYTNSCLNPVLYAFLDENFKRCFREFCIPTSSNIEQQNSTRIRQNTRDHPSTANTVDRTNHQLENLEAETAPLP
Method in brief: as §1

[8] = target: T8, Human neurokinin (NK1) (Homo sapiens, UniProt P25103); test: Radioligand binding, human neurokinin NK1 membranes, filtration, [125I]-Substance P; settings: compound at 10 μM, [125I]-Substance P
T8 construct: purchased Perkin Elmer Biosignal
T8 sequence (P25103 whole entry): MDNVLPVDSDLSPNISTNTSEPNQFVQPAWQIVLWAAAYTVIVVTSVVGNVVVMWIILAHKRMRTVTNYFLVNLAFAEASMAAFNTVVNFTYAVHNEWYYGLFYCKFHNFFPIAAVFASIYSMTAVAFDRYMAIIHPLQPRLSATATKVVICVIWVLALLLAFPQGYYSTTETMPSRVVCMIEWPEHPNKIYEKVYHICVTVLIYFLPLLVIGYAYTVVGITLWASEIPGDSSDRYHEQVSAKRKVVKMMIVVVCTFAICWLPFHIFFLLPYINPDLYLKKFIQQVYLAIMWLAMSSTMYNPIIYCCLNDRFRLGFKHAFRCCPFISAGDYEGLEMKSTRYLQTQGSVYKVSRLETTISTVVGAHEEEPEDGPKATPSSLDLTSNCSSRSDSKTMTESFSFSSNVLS
Method in brief: as §2

[9] = target: T9, Human neuropeptide Y (NPY-Y1) (Homo sapiens, UniProt P25929); test: Radioligand binding, human neuropeptide Y NPY-Y1 membranes, FlashPlate, [125I]-PYY; settings: compound at 10 μM, [125I]-PYY
T9 construct: purchased Perkin Elmer Biosignal
T9 sequence (P25929 1-384): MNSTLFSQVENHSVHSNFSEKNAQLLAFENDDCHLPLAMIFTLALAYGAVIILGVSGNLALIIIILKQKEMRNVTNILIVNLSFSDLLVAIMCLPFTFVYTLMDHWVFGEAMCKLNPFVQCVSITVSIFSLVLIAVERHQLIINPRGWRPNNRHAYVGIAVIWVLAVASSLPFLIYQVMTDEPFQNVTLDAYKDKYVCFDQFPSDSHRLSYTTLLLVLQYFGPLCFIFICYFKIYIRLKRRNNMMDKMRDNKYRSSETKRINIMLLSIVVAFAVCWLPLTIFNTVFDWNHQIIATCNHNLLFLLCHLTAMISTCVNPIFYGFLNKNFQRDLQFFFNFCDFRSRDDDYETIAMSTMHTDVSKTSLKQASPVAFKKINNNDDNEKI
Method in brief: as §1

[10] = target: T10, Human opioid (ORL1) (Homo sapiens, UniProt P41146); test: Radioligand binding, human opioid ORL1 membranes, FlashPlate, [125I]-Nociceptin; settings: compound at 10 μM, [125I]-Nociceptin
T10 construct: purchased Perkin Elmer Biosignal
T10 sequence (P41146 whole entry): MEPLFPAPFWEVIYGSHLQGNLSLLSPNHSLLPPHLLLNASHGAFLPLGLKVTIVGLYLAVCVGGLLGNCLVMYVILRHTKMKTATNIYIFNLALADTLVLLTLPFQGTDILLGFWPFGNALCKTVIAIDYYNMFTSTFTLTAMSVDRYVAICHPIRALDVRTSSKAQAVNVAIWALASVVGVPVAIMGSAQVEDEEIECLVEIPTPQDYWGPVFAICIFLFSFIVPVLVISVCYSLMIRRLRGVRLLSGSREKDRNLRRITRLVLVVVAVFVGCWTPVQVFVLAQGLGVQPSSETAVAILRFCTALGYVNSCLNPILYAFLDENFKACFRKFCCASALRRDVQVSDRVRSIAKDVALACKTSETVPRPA
Method in brief: as §1

[11] = target: T11, Mouse urotensin (mUR2) (Mus musculus, UniProt Q8VIH9); test: Radioligand binding, mouse urotensin mUR2 membranes, FlashPlate, [125I]-Urotensin II; settings: compound at 10 μM, [125I]-Urotensin II
T11 construct: purchased Perkin Elmer Biosignal
T11 sequence (Q8VIH9 1-385): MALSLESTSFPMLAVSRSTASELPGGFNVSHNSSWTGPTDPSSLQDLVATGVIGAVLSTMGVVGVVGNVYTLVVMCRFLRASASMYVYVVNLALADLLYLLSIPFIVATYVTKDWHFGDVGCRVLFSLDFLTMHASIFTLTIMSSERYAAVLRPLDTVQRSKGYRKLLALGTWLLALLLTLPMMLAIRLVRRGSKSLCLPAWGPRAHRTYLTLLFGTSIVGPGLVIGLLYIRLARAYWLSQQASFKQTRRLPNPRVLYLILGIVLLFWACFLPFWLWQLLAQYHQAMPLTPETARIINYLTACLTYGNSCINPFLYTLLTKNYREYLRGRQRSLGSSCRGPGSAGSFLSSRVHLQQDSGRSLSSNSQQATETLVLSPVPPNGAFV
Method in brief: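 Cloned mouse urotensin (mUR2) receptor membranes from Perkin Elmer Biosignal were immobilized in FlashPlate microplates using a proprietary coating. Each well got 19.5 μl buffer, then 0.5 μl of DMSO, reference ligand, or compound. Adding 5 μl of [125I]-Urotensin II, diluted to 5× final concentration in binding buffer, started binding. Plates were sealed with TopSeal-A and incubated 1 hour at room temperature in the dark. Wells were counted for 30 seconds each on a TopCount after a 60-second delay, and percentage inhibition was calculated.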

T1 sequence (P41143 whole entry): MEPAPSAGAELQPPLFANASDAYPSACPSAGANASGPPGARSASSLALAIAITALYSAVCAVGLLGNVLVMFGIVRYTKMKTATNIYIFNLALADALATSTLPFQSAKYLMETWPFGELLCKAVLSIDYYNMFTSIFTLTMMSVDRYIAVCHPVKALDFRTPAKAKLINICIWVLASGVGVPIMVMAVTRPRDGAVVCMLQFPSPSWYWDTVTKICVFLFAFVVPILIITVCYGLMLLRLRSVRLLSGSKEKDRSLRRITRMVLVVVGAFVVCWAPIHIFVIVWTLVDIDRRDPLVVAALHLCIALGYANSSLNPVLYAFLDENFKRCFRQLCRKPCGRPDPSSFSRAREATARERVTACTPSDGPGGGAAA

Compound: N=C(N)NCC(=O)NC1COC(COCc2ccc(Cl)cc2)C(O)C1OCc1ccc(Cl)cc1 (stereo not shown) [compound 539]
- A1: inhibition of radioligand binding, human δ-opioid (DOP) [1]: − (“−” indicates less than 50% inhibition at 10 μM)
- A2: inhibition of radioligand binding, human κ-opioid (KOP) [2]: − (“−” indicates less than 50% inhibition at 10 μM)
- A3: inhibition of radioligand binding, human melanocortin (MC3) [3]: − (“−” indicates less than 50% inhibition at 10 μM)
- A4: inhibition of radioligand binding, human melanocortin (MC4) [4]: + (“+” indicates greater than 50% inhibition at 10 μM)
- A5: inhibition of radioligand binding, human melanocortin (MC5) [5]: − (“−” indicates less than 50% inhibition at 10 μM)
- A6: inhibition of radioligand binding, human melanin-concentrating hormone (MCH1) ([6]; [125I]-S36057): − (“−” indicates less than 50% inhibition at 10 μM)
- A7: inhibition of radioligand binding, human μ-opioid (MOP) [7]: − (“−” indicates less than 50% inhibition at 10 μM)
- A8: inhibition of radioligand binding, human neurokinin (NK1) [8]: + (“+” indicates greater than 50% inhibition at 10 μM)
- A9: inhibition of radioligand binding, human neuropeptide Y (NPY-Y1) [9]: − (“−” indicates less than 50% inhibition at 10 μM)
- A10: inhibition of radioligand binding, human opioid (ORL1) [10]: − (“−” indicates less than 50% inhibition at 10 μM)
- A11: inhibition of radioligand binding, mouse urotensin (mUR2) [11]: − (“−” indicates less than 50% inhibition at 10 μM)

Compound: N=C(N)NCCC(=O)NC1C(OCc2ccc(-c3ccccc3)cc2)OC(COCc2ccc(Cl)cc2)C(O)C1OCc1ccc2ccccc2c1 (stereo not shown) [compound 413]
- A1: inhibition of radioligand binding ([1]; human DOP membranes): − (“−” indicates less than 50% inhibition at 10 μM)
- A2: inhibition of radioligand binding ([2]; human KOP membranes): − (“−” indicates less than 50% inhibition at 10 μM)
- A3: inhibition of radioligand binding ([3]; human MC3 membranes): + (“+” indicates greater than 50% inhibition at 10 μM)
- A4: inhibition of radioligand binding ([4]; human MC4 membranes): + (“+” indicates greater than 50% inhibition at 10 μM)
- A5: inhibition of radioligand binding ([5]; human MC5 membranes): + (“+” indicates greater than 50% inhibition at 10 μM)
- A6: inhibition of radioligand binding ([6]; [125I]-S36057, human MCH1 membranes): + (“+” indicates greater than 50% inhibition at 10 μM)
- A7: inhibition of radioligand binding ([7]; human MOP membranes): − (“−” indicates less than 50% inhibition at 10 μM)
- A8: inhibition of radioligand binding ([8]; human NK1 membranes): + (“+” indicates greater than 50% inhibition at 10 μM)
- A9: inhibition of radioligand binding ([9]; human NPY-Y1 membranes): − (“−” indicates less than 50% inhibition at 10 μM)
- A10: inhibition of radioligand binding ([10]; human ORL1 membranes): + (“+” indicates greater than 50% inhibition at 10 μM)
- A11: inhibition of radioligand binding ([11]; mouse mUR2 membranes): − (“−” indicates less than 50% inhibition at 10 μM)

Compound: NCCCC(=O)NC1C(OCc2ccccc2)OC(COCc2ccccc2)C(O)C1OCc1ccc(Cl)cc1 (stereo not shown) [compound 373]
- A1: inhibition of radioligand binding, human δ-opioid (DOP) [1]: − (“−” indicates less than 50% inhibition at 10 μM)
- A2: inhibition of radioligand binding, human κ-opioid (KOP) [2]: − (“−” indicates less than 50% inhibition at 10 μM)
- A3: inhibition of radioligand binding, human melanocortin (MC3) [3]: − (“−” indicates less than 50% inhibition at 10 μM)
- A4: inhibition of radioligand binding, human melanocortin (MC4) [4]: + (“+” indicates greater than 50% inhibition at 10 μM)
- A5: inhibition of radioligand binding, human melanocortin (MC5) [5]: + (“+” indicates greater than 50% inhibition at 10 μM)
- A6: inhibition of radioligand binding, human melanin-concentrating hormone (MCH1) ([6]; [125I]-S36057): − (“−” indicates less than 50% inhibition at 10 μM)
- A7: inhibition of radioligand binding, human μ-opioid (MOP) [7]: − (“−” indicates less than 50% inhibition at 10 μM)
- A8: inhibition of radioligand binding, human neurokinin (NK1) [8]: + (“+” indicates greater than 50% inhibition at 10 μM)
- A9: inhibition of radioligand binding, human neuropeptide Y (NPY-Y1) [9]: − (“−” indicates less than 50% inhibition at 10 μM)
- A10: inhibition of radioligand binding, human opioid (ORL1) [10]: − (“−” indicates less than 50% inhibition at 10 μM)
- A11: inhibition of radioligand binding, mouse urotensin (mUR2) [11]: − (“−” indicates less than 50% inhibition at 10 μM)

Compound: CSC1OC(COCc2ccc3ccccc3c2)C(O)C(OCc2ccc3ccccc3c2)C1NC(=O)CNC(=N)N (stereo not shown) [compound 317]
- A1: inhibition of radioligand binding, human δ-opioid (DOP) [1]: − (“−” indicates less than 50% inhibition at 10 μM)
- A2: inhibition of radioligand binding, human κ-opioid (KOP) [2]: − (“−” indicates less than 50% inhibition at 10 μM)
- A3: inhibition of radioligand binding, human melanocortin (MC3) [3]: − (“−” indicates less than 50% inhibition at 10 μM)
- A4: inhibition of radioligand binding, human melanocortin (MC4) [4]: − (“−” indicates less than 50% inhibition at 10 μM)
- A5: inhibition of radioligand binding, human melanocortin (MC5) [5]: + (“+” indicates greater than 50% inhibition at 10 μM)
- A6: inhibition of radioligand binding, human melanin-concentrating hormone (MCH1) ([6]; [125I]-S36057): − (“−” indicates less than 50% inhibition at 10 μM)
- A7: inhibition of radioligand binding, human μ-opioid (MOP) [7]: − (“−” indicates less than 50% inhibition at 10 μM)
- A8: inhibition of radioligand binding, human neurokinin (NK1) [8]: + (“+” indicates greater than 50% inhibition at 10 μM)
- A9: inhibition of radioligand binding, human neuropeptide Y (NPY-Y1) [9]: − (“−” indicates less than 50% inhibition at 10 μM)
- A10: inhibition of radioligand binding, human opioid (ORL1) [10]: − (“−” indicates less than 50% inhibition at 10 μM)
- A11: inhibition of radioligand binding, mouse urotensin (mUR2) [11]: − (“−” indicates less than 50% inhibition at 10 μM)

Compound: COCC1OC(OCc2ccccc2)C(NC(=O)CCCNC(=N)N)C(OCc2ccccc2)C1O (stereo not shown) [compound 175]
- A1 radioligand binding, percentage inhibition [1]: − (“−” indicates less than 50% inhibition at 10 μM)
- A2 radioligand binding, percentage inhibition [2]: − (“−” indicates less than 50% inhibition at 10 μM)
- A3 radioligand binding, percentage inhibition [3]: − (“−” indicates less than 50% inhibition at 10 μM)
- A4 radioligand binding, percentage inhibition [4]: − (“−” indicates less than 50% inhibition at 10 μM)
- A5 radioligand binding, percentage inhibition [5]: − (“−” indicates less than 50% inhibition at 10 μM)
- A6 radioligand binding, percentage inhibition ([6]; [125I]-S36057): − (“−” indicates less than 50% inhibition at 10 μM)
- A7 radioligand binding, percentage inhibition [7]: − (“−” indicates less than 50% inhibition at 10 μM)
- A8 radioligand binding, percentage inhibition [8]: + (“+” indicates greater than 50% inhibition at 10 μM)
- A9 radioligand binding, percentage inhibition [9]: − (“−” indicates less than 50% inhibition at 10 μM)
- A10 radioligand binding, percentage inhibition [10]: − (“−” indicates less than 50% inhibition at 10 μM)
- A11 radioligand binding, percentage inhibition [11]: − (“−” indicates less than 50% inhibition at 10 μM)
